Results from PubChem BioAssay (NCI).
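These data come from cells grown in 96-well plates and exposed to compound for 48 hours at five concentrations. GI50 = concentration required for 50% inhibition of growth. TGI is the concentration that stops growth completely.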

Columns and labels:
Experiment in all cases: DTP human tumour cell line panel, 48 h
A498 renal = system: A498 renal
ACHN renal = system: ACHN renal
BT-549 breast = system: BT-549 breast
CAKI-1 renal = system: CAKI-1 renal
CCRF-CEM leukemia = system: CCRF-CEM leukemia
DU-145 prostate = system: DU-145 prostate
EKVX NSCLC = system: EKVX NSCLC
HCC-2998 colon = system: HCC-2998 colon
HCT-15 colon = system: HCT-15 colon
HOP-92 NSCLC = system: HOP-92 NSCLC
IGROV1 ovarian = system: IGROV1 ovarian
KM12 colon = system: KM12 colon
LOX IMVI melanoma = system: LOX IMVI melanoma
MALME-3M melanoma = system: MALME-3M melanoma
MCF7 breast = system: MCF7 breast
MDA-MB-231 breast = system: MDA-MB-231 breast
MDA-MB-435 = system: MDA-MB-435
NCI-H23 lung = system: NCI-H23 lung
NCI-H460 lung = system: NCI-H460 lung
OVCAR-3 ovarian = system: OVCAR-3 ovarian
OVCAR-4 ovarian = system: OVCAR-4 ovarian
OVCAR-5 ovarian = system: OVCAR-5 ovarian
PC-3 prostate = system: PC-3 prostate
RXF 393 renal = system: RXF 393 renal
SF-268 CNS = system: SF-268 CNS
SF-295 CNS = system: SF-295 CNS
SF-539 CNS = system: SF-539 CNS
SK-MEL-2 melanoma = system: SK-MEL-2 melanoma
SK-MEL-28 melanoma = system: SK-MEL-28 melanoma
SK-MEL-5 melanoma = system: SK-MEL-5 melanoma
SN12C renal = system: SN12C renal
SNB-19 CNS = system: SNB-19 CNS
SNB-75 CNS = system: SNB-75 CNS
SR leukemia = system: SR leukemia
SW-620 colon = system: SW-620 colon
TK-10 renal = system: TK-10 renal
UACC-62 melanoma = system: UACC-62 melanoma
UO-31 renal = system: UO-31 renal
786-0 renal = system: 786-0 renal
A549 NSCLC = system: A549 NSCLC
COLO 205 colon = system: COLO 205 colon
HCT-116 colon = system: HCT-116 colon
HL-60(TB) leukemia = system: HL-60(TB) leukemia
HOP-62 NSCLC = system: HOP-62 NSCLC
HT29 colon = system: HT29 colon
K-562 leukemia = system: K-562 leukemia
M14 melanoma = system: M14 melanoma
MOLT-4 leukemia = system: MOLT-4 leukemia
NCI-H226 lung = system: NCI-H226 lung
NCI/ADR-RES ovarian = system: NCI/ADR-RES ovarian
OVCAR-8 ovarian = system: OVCAR-8 ovarian
RPMI-8226 leukemia = system: RPMI-8226 leukemia
SK-OV-3 ovarian = system: SK-OV-3 ovarian
T-47D breast = system: T-47D breast
U251 CNS = system: U251 CNS
UACC-257 melanoma = system: UACC-257 melanoma

CN1CCN(CCCOc2ccc3ncnc(Nc4ccc(OCc5cccc(F)c5)c(Cl)c4)c3c2)CC1
GI50 (A498 renal): 1130 nM | TGI (A498 renal): 2420 nM | GI50 (ACHN renal): 639 nM | TGI (ACHN renal): 1950 nM | GI50 (BT-549 breast): 1580 nM | TGI (BT-549 breast): 3000 nM | GI50 (CAKI-1 renal): 1130 nM | TGI (CAKI-1 renal): 2340 nM | GI50 (CCRF-CEM leukemia): 1570 nM | TGI (CCRF-CEM leukemia): 3530 nM | GI50 (DU-145 prostate): 1100 nM | TGI (DU-145 prostate): 2350 nM | GI50 (EKVX NSCLC): 1140 nM | TGI (EKVX NSCLC): 2470 nM | GI50 (HCC-2998 colon): 1700 nM | TGI (HCC-2998 colon): 3170 nM | GI50 (HCT-15 colon): 1060 nM | TGI (HCT-15 colon): 2350 nM | GI50 (HOP-92 NSCLC): 1150 nM | TGI (HOP-92 NSCLC): 2540 nM | GI50 (IGROV1 ovarian): 1020 nM | TGI (IGROV1 ovarian): 2550 nM | GI50 (KM12 colon): 1730 nM | TGI (KM12 colon): 3210 nM | GI50 (LOX IMVI melanoma): 1750 nM | TGI (LOX IMVI melanoma): 3230 nM | GI50 (MALME-3M melanoma): 1650 nM | TGI (MALME-3M melanoma): 3230 nM | GI50 (MCF7 breast): 1500 nM | TGI (MCF7 breast): 2960 nM | GI50 (MDA-MB-231 breast): 1620 nM | TGI (MDA-MB-231 breast): 3100 nM | GI50 (MDA-MB-435): 1610 nM | TGI (MDA-MB-435): 3110 nM | GI50 (NCI-H23 lung): 1690 nM | TGI (NCI-H23 lung): 3200 nM | GI50 (NCI-H460 lung): 1780 nM | TGI (NCI-H460 lung): 3380 nM | GI50 (OVCAR-3 ovarian): 1480 nM | TGI (OVCAR-3 ovarian): 2920 nM | GI50 (OVCAR-4 ovarian): 1570 nM | TGI (OVCAR-4 ovarian): 3350 nM | GI50 (OVCAR-5 ovarian): 1600 nM | TGI (OVCAR-5 ovarian): 3050 nM | GI50 (PC-3 prostate): 1740 nM | TGI (PC-3 prostate): 3390 nM | GI50 (RXF 393 renal): 1580 nM | TGI (RXF 393 renal): 3070 nM | GI50 (SF-268 CNS): 1490 nM | TGI (SF-268 CNS): 3150 nM | GI50 (SF-295 CNS): 1770 nM | TGI (SF-295 CNS): 3190 nM | GI50 (SF-539 CNS): 1670 nM | TGI (SF-539 CNS): 3090 nM | GI50 (SK-MEL-2 melanoma): 2070 nM | TGI (SK-MEL-2 melanoma): 4040 nM | GI50 (SK-MEL-28 melanoma): 1720 nM | TGI (SK-MEL-28 melanoma): 3190 nM | GI50 (SK-MEL-5 melanoma): 1670 nM | TGI (SK-MEL-5 melanoma): 3040 nM | GI50 (SN12C renal): 1630 nM | TGI (SN12C renal): 3100 nM | GI50 (SNB-19 CNS): 1500 nM | TGI (SNB-19 CNS): 2870 nM | GI50 (SNB-75 CNS): 1380 nM | TGI (SNB-75 CNS): 2710 nM | GI50 (SR leukemia): 379 nM | TGI (SR leukemia): 1790 nM | GI50 (SW-620 colon): 1730 nM | TGI (SW-620 colon): 3280 nM | GI50 (TK-10 renal): 577 nM | TGI (TK-10 renal): 2320 nM | GI50 (UACC-62 melanoma): 1700 nM | TGI (UACC-62 melanoma): 3240 nM | GI50 (UO-31 renal): 1180 nM | TGI (UO-31 renal): 2490 nM

COc1ccc2c(c1)c(-c1nonc1-c1cn(C)c3ccccc13)cn2C
GI50 (786-0 renal): 628 nM | TGI (786-0 renal): > 100000 nM | GI50 (A498 renal): 332 nM | TGI (A498 renal): 988 nM | GI50 (A549 NSCLC): 629 nM | TGI (A549 NSCLC): > 100000 nM | GI50 (ACHN renal): 621 nM | TGI (ACHN renal): > 100000 nM | GI50 (BT-549 breast): 798 nM | TGI (BT-549 breast): > 100000 nM | GI50 (CAKI-1 renal): 382 nM | TGI (CAKI-1 renal): > 100000 nM | GI50 (CCRF-CEM leukemia): 374 nM | TGI (CCRF-CEM leukemia): > 100000 nM | GI50 (COLO 205 colon): 479 nM | TGI (COLO 205 colon): > 100000 nM | GI50 (DU-145 prostate): 528 nM | TGI (DU-145 prostate): > 100000 nM | GI50 (EKVX NSCLC): 1110 nM | TGI (EKVX NSCLC): > 100000 nM | GI50 (HCC-2998 colon): 1110 nM | TGI (HCC-2998 colon): > 100000 nM | GI50 (HCT-116 colon): 441 nM | TGI (HCT-116 colon): > 100000 nM | GI50 (HCT-15 colon): 456 nM | TGI (HCT-15 colon): > 100000 nM | GI50 (HL-60(TB) leukemia): 340 nM | GI50 (HOP-62 NSCLC): 670 nM | TGI (HOP-62 NSCLC): > 100000 nM | GI50 (HOP-92 NSCLC): 890 nM | TGI (HOP-92 NSCLC): > 100000 nM | GI50 (HT29 colon): 357 nM | TGI (HT29 colon): > 100000 nM | GI50 (IGROV1 ovarian): 577 nM | TGI (IGROV1 ovarian): > 100000 nM | GI50 (K-562 leukemia): 300 nM | TGI (K-562 leukemia): > 100000 nM | GI50 (KM12 colon): 414 nM | TGI (KM12 colon): > 100000 nM | GI50 (LOX IMVI melanoma): 588 nM | TGI (LOX IMVI melanoma): > 100000 nM | GI50 (M14 melanoma): 373 nM | TGI (M14 melanoma): > 100000 nM | GI50 (MALME-3M melanoma): 675 nM | TGI (MALME-3M melanoma): > 100000 nM | GI50 (MCF7 breast): 364 nM | TGI (MCF7 breast): > 100000 nM | GI50 (MDA-MB-231 breast): 877 nM | TGI (MDA-MB-231 breast): > 100000 nM | GI50 (MDA-MB-435): 169 nM | TGI (MDA-MB-435): 554 nM | GI50 (MOLT-4 leukemia): 668 nM | TGI (MOLT-4 leukemia): > 100000 nM | GI50 (NCI-H226 lung): 998 nM | TGI (NCI-H226 lung): > 100000 nM | GI50 (NCI-H23 lung): 996 nM | TGI (NCI-H23 lung): > 100000 nM | GI50 (NCI-H460 lung): 403 nM | TGI (NCI-H460 lung): > 100000 nM | GI50 (NCI/ADR-RES ovarian): 408 nM | TGI (NCI/ADR-RES ovarian): > 100000 nM | GI50 (OVCAR-3 ovarian): 336 nM | TGI (OVCAR-3 ovarian): 8750 nM | GI50 (OVCAR-4 ovarian): 1680 nM | TGI (OVCAR-4 ovarian): > 100000 nM | GI50 (OVCAR-5 ovarian): 1250 nM | TGI (OVCAR-5 ovarian): > 100000 nM | GI50 (OVCAR-8 ovarian): 570 nM | TGI (OVCAR-8 ovarian): > 100000 nM | GI50 (PC-3 prostate): 481 nM | TGI (PC-3 prostate): > 100000 nM | GI50 (RPMI-8226 leukemia): 634 nM | TGI (RPMI-8226 leukemia): > 100000 nM | GI50 (RXF 393 renal): 270 nM | TGI (RXF 393 renal): 1030 nM | GI50 (SF-268 CNS): 1290 nM | TGI (SF-268 CNS): > 100000 nM | GI50 (SF-295 CNS): 343 nM | TGI (SF-295 CNS): > 100000 nM | GI50 (SF-539 CNS): 312 nM | TGI (SF-539 CNS): 1530 nM | GI50 (SK-MEL-2 melanoma): 554 nM | TGI (SK-MEL-2 melanoma): > 100000 nM | GI50 (SK-OV-3 ovarian): 536 nM | TGI (SK-OV-3 ovarian): > 100000 nM | GI50 (SN12C renal): 697 nM | TGI (SN12C renal): > 100000 nM | GI50 (SNB-19 CNS): 556 nM | TGI (SNB-19 CNS): > 100000 nM | GI50 (SNB-75 CNS): 198 nM | TGI (SNB-75 CNS): 671 nM | GI50 (SR leukemia): 313 nM | TGI (SR leukemia): > 100000 nM | GI50 (SW-620 colon): 367 nM | TGI (SW-620 colon): > 100000 nM | GI50 (T-47D breast): 542 nM | TGI (T-47D breast): > 100000 nM | GI50 (TK-10 renal): 2260 nM | TGI (TK-10 renal): > 100000 nM | GI50 (U251 CNS): 440 nM | TGI (U251 CNS): > 100000 nM | GI50 (UACC-257 melanoma): 463 nM | TGI (UACC-257 melanoma): > 100000 nM | GI50 (UACC-62 melanoma): 493 nM | TGI (UACC-62 melanoma): > 100000 nM | GI50 (UO-31 renal): 430 nM | TGI (UO-31 renal): > 100000 nM
